Assay results taken from a melting point compilation (Tetko et al.; mined from patent text by program, amines drawn as free bases though some values may be those of a salt).

| melting point [°C] | Structure (SMILES) |
| --- | --- |
| 211 | NC(=O)c1c(Cl)cc(Cl)c(CC(=O)O)c1Cl |
| 179 | O=C(Nc1ccnc(Br)c1)C1(O)CCCCC1 |
| 157 | O=C1C(c2ccccc2)=C(c2ccc(Cl)cc2)C(=O)N1c1ccc(Cl)cc1 |
| 137 to 138 | CCCn1c(=O)c2[nH]c(CCCc3ccccc3)nc2n(CCC)c1=O |
| 147 to 148 | C(=C\c1nc(COc2ccc(CCCn3cnnn3)cc2)co1)/c1ccccc1 |
| 139 | CC(C)Oc1ccc([N+](=O)[O-])cc1O |
| 190 to 191 | COc1ccc2[nH]c(C)c(C=O)c2c1 |
| 290 | Cn1cc(C(=O)O)c(=O)c2cc3cc(F)c(N4CCN(O)CC4)cc3nc21 |
| 61 to 63 | N#Cc1cnn(Cc2ccccc2)c1 |
| 55 to 64 | Cc1cc(C(=O)N2Cc3ccc(C(=O)N(CCCN(C)C)CCCN(C)C)n3Cc3ccccc32)ccc1-c1ccccc1C(F)(F)F |
| 228 to 230 | O=C1CCC2=C(CCc3cc(Cl)ccc32)N1 |
| 212 to 213 | Nc1ncnc2c1ncn2C1OC(CNC=O)C(O)C1O (stereo not drawn) |
| 133 to 135 | NNc1c([N+](=O)[O-])cnn1-c1c(Cl)cc(C(F)(F)F)cc1Cl |
| 50 to 52 | c1cc(C2=NCCS2)nc(C2OCCO2)c1 |
| 91 to 94 | CCC(C)(C)c1ccc(OCCCNC(=O)c2cc(N=C=S)c3ccccc3c2O)c(C(C)(C)CC)c1 |
| 97 to 98 | COc1ccc(CCNC(=O)COc2ccc(C[C@H](OC)C(=O)O)cc2)cc1 |
| 180 to 183 | C#CCONC(=O)c1nc(-c2ccc(Cl)c(OC)c2F)cc(N)c1Cl |
| 165 | O=C1O[C@@H](CO)CN1c1ccc2ncccc2c1 |
| 148 to 150 | COc1cc(C=CC(=O)c2c(OCC=C(C)C)ccc3c(C)cc(=O)oc23)cc(OC)c1OC |
| 103 to 104 | Cc1ccc(-c2cc(F)c(F)cc2-c2ccc(S(N)(=O)=O)cc2)cc1 |
| 211 to 214 | Cc1cc(-c2ccccc2O)n(-c2ccccc2)n1 |
| 150 to 153 | COc1cc(N2CCN(C)CC2)ccc1Nc1ncc2cc3ccccc3n2n1 |
| 195 to 196 | CC1=C(C#N)C(C)(c2ccccc2)C(C#N)=C(C)N1 |
| 190 to 191 | Cc1cc(C)c(C(O)c2cc(-n3ccnc3)ccc2C)c(C)c1 (stereo not drawn) |
| 58 | CCCCN(C(=O)NC)c1ccc(Cl)c(Cl)c1 |
| 176 to 179 | O=C1NC(=O)c2c(F)cccc21 |

| melting point [°C] | Structure (SMILES) |
| --- | --- |
| 146 to 148 | Clc1ncccc1-c1nnsc1-c1cccnc1Cl |
| 120 to 122 | CCOC(=O)N1CCN(C(=CNc2cccc(OC)c2)C(=O)OC)CC1 |
| 142 to 144 | O=C1C=C(O)CC(c2cc(C3CCOC3)no2)C1 (stereo not drawn) |
| 245 to 246 | CCC1=C(C)CN(C(=O)NC2COc3cc(OC)c(S(=O)(=O)NC(=O)NC)cc3C2)C1=O (stereo not drawn) |
| 126 to 128 | CCCCOP(=O)(CCCC1(c2ccccn2)c2ccccc2-c2ccccc21)OCCCC |
| 142 to 143 | O=C1OC(=O)C2=C1CCOc1ccccc12 |
| 139 to 140 | Cc1cc(CNC(=O)c2sc(N3C[C@@H](C)N(Cc4ccc(F)cc4)C3=O)nc2C)no1 |
| 180 to 183 | Cc1[nH]c(-c2ccccc2)c(N)c1C(=O)C(C)C |
| 138 to 139 | CCOC(=O)c1c(NCCc2ccccc2)n[nH]c1C |
| 120 to 122 | CCS(=O)(=O)N[C@@H]1CCCC[C@H]1OCC(=O)O (relative stereo) |
| 174 to 176 | NS(=O)(=O)c1cc2cc(CO)ccc2s1 |
| 144 to 146 | CCOC(=O)Nc1cc2c(cc1F)nc(C(F)(F)F)n2Cc1cccc(Cl)c1 |
| 214 to 216 | O=c1ccc(-c2ccccc2Cl)n[nH]1 |
| 105 to 106 | Cc1ccc(S(=O)(=O)OCC2CCc3sc(C)nc3C2)cc1 (stereo not drawn) |
| 170 to 172 | O=C1Nc2ccc(Cl)cc2C(OCc2ccccn2)(C(F)(F)F)CN1C1CC1 (stereo not drawn) |
| 137 to 139 | NC(CCCSc1nccc(NC(N)=NCC(F)(F)F)n1)=NO |
| 195 to 198 | Cc1ccc([N+](=O)[O-])c(C=C2C(=O)NC(=O)N2C)c1C |
| 220 to 221 | O=C(c1ccc(Cl)cc1)N1CCc2cc(S(=O)(=O)n3cc(-c4ccccc4)[nH]c3=O)ccc21 |
| 174 | Cc1cc(Br)nc2c1OCC(=O)N2 |
| 107 to 108 | Cc1oc(-c2ccccc2)nc1COc1ccc(Cn2cc(CCC(=O)O)c(Oc3ccc(C(F)(F)F)cn3)n2)cc1 |
| 155 | COc1ccc(NC(=N)N2CCCCC2)c(-c2ccccc2)c1 |
| 217 to 219 | CCNCC1CCN(c2c(F)cc3c(=O)c(C(=O)O)cn(C4CC4)c3c2OC)C1 (stereo not drawn) |
| 135 to 140 | CCN1C(=O)N=NC1c1cccc(F)c1 (stereo not drawn) |
| 216 to 235 | COc1cc2c(cc1Nc1ncc(Cl)c(N[C@@H]3CCCC[C@H]3NS(C)(=O)=O)n1)CCN(CCS(C)(=O)=O)CC2 |
| 81 to 82 | O=C(c1cccnc1)N1CCC=N1 |
| 27 to 30 | COC(=S)C(Cl)=C(C)Cl |

| melting point [°C] | Structure (SMILES) |
| --- | --- |
| 127 to 131 | CCCc1nccn1C(C)COCC1=C(C(=O)OCC)C(c2ccccc2Cl)C2=C(CCCC2=O)N1 (stereo not drawn) |
| 55 to 57 | CCCc1c(OCC2(O)CCCCC2Sc2ccc(C(=O)CCC(=O)O)cc2)ccc(C(C)=O)c1O (stereo not drawn) |
| 144 to 146 | Cc1ccc(S(=O)(=O)OCCOc2ccc(N)c(CS(=O)(=O)c3ccccc3)c2)cc1 |
| 188 to 189 | CNC1(c2ccccc2Cl)C(=O)Nc2ccc(F)cc21 (stereo not drawn) |
| 243 | O=C(CN1CCCCC1)Nc1ccc2c(c1)C(=O)c1cc(NC(=O)CN3CCCCC3)ccc1C2=O |
| 107 to 110 | CNC(=O)N1CCC(Oc2c(F)c(F)c(F)c(F)c2F)CC1 |
| 83 to 84 | c1ccc2cc(CN3CCN(c4nccs4)CC3)ccc2c1 |
| 90 to 91 | Cc1nn(C)c2nc(-c3ccccc3)cc(N(C)C)c12 |
| 196 | O=C1CN(c2ccccc2)C(=O)N1C1CCCCC1 |
| 215 to 217 | CCOC(=O)C1=C(COCCn2c(C)nc(C)c2C)NC2=C(C(=O)OC2)C1c1ccccc1Cl (stereo not drawn) |
| 224 to 226 | Cc1nn(C)c2nc(N)c(-c3cccc(Cl)c3)nc12 |
| 172 | COc1cc(O)c(CC=C(C)C)c(O)c1C(=O)C=Cc1ccc(O)cc1 |
| 105 to 107 | CCOC(C)n1cnc(-c2ccc(F)cc2)c1-c1ccc(F)cc1 (stereo not drawn) |
| 188 | NS(=O)(=O)c1ccc(-c2ccccc2-c2ccc(C(F)(F)F)cc2)cc1 |
| 144 to 145 | O=C(NCCCCCCCNC(=O)c1ccc(OC2CCCCC2)cc1)c1ccc(OC2CCCCC2)cc1 |
| 221 | O=C1C(=O)c2ccccc2C2=C1SCC1(CCN(C(=O)c3ccc(Cl)c(Cl)c3)CC1)O2 |
| 180 to 190 | CC(=O)OCc1ccc2cc(C(=O)O)ccc2c1 |
| 115 to 117 | CCOc1cc(C(CS(C)(=O)=O)N2Cc3cccc(NC(=O)C4CC4)c3C2=O)ccc1OC(F)F (stereo not drawn) |
| 124 to 125 | CC(=O)Cc1ccc2c(c1)Cc1cccnc1O2 |
| 135 to 142 | Cc1ccc([N+](=O)[O-])cc1NC(=N)N |
| > 230 | CCn1nc(C)c2c1C(=O)NCC(c1ccc(NS(=O)(=O)c3ccccc3S(=O)(=O)c3ccccc3)cc1)=N2 |
| 118 to 123 | CCN(CC)C(=S)n1cc(F)c(/N=C/N(C)C)nc1=O |
| 64 to 68 | CCCCCOc1nc(N)c2ncn(C3CCCCC3)c2n1 |
| 133 to 134 | Oc1cccc2sncc12 |
| 116 | Cc1c[nH]c2ccc(O)cc12 |
| 183 to 184 | c1ccc(Nc2nc(-c3ccco3)nc3ccccc23)cc1 |

| melting point [°C] | Structure (SMILES) |
| --- | --- |
| 59 to 62 | CCCc1c(OCc2cccc(C(=O)OCC)c2OCC)ccc(C(C)=O)c1O |
| 112 | CN(CCCCCCCNC(=O)NCCCOc1cccc(CN2CCCCC2)c1)CCN(Cc1ccc(F)cc1)c1ccccn1 |
| 76 to 78 | CCCCn1c(=O)n(CCCC2CO2)c(=O)c2c1ncn2C (stereo not drawn) |
| 97 to 100 | CN(Cc1ccccc1)[C@@H](CC(N)=O)C(=O)N[C@@H](Cc1ccccc1)[C@H](O)C(=O)N1CCC[C@H]1C(=O)NC(C)(C)C |
| 67 to 70.5 | CC(C)(C)c1ccc(NC=CS(=O)(=O)F)cc1 |
| 174 | O=C(O)CCCc1cc2nc(Cl)ccc2n1S(=O)(=O)c1ccc(-c2ccncc2)cc1 |
| 273 to 274 | C1=C(c2cc3ccccc3[nH]2)Cc2ccccc21 |
| 187 to 191 | O=C(CC1CC1)NC[C@H]1CN(c2ccc3c(c2)CCCc2cnoc2-3)C(=O)O1 |
| 132 to 137 | COCC(=O)N(c1c(C)ccc2ccccc12)C(CCO)C(=O)OC (stereo not drawn) |
| 144 | OCC1OC(n2cnc3c(NCc4ccc5ccc6cccc7ccc4c5c67)ncnc32)C(O)C1O (stereo not drawn) |
| 116 | Cc1nc(-c2ccc(F)cc2Cl)nn1-c1ccccc1C(F)(F)F |
| 83 to 85 | COC(=O)N1CCCC2CN(c3ccc(N4CC(CNC(C)=O)OC4=O)cc3F)CC21 (stereo not drawn) |
| 138 to 139 | O=c1[nH]c(=O)n(C2CC(OCc3ccccc3)C(CO)O2)cc1F (stereo not drawn) |
| 202 to 204 | COC(=O)c1c(I)ccc2c(=O)c3ccccc3[nH]c12 |
| 193 to 196 | COC(=S)c1[nH]c2ccc(Cl)cc2c1-c1ccccc1 |
| 158 to 159 | Cc1oc(-c2ccco2)nc1COc1ccc(COc2nn(-c3ccccc3)cc2C#N)cc1 |
| 99 to 101 | CCOC(=O)[C@H](Cc1ccc([N+](=O)[O-])cc1)NC(=O)c1ccccc1 |
| 141 to 142 | NC(=O)CCCCCN1CCN(c2csc3cc(F)ccc23)CC1 |
| 159 | CC1CCCN(C[C@@H]2COc3ccc(S(C)(=O)=O)cc3O2)C1 (stereo partly drawn) |
| 97 to 99 | BrCCCCCCCOc1nc(-c2ccccc2)c(-c2ccccc2)n1-c1ccccc1 |
| 138 to 139 | COC(=O)c1cc(=O)c2cc(F)ccc2o1 |
| 67 | CCCCCCc1ccc(C#Cc2ccc(Br)cc2)cc1 |
| 134 to 135 | COC(=O)c1ccc(CN2CCN(C(=O)c3ccc(Cl)cc3)CC2)cc1 |

| Structure (SMILES) | melting point [°C] |
| --- | --- |
| CNC(=O)Oc1ccc(SC)c2c1CCCC2 | 146 to 147 |
| c1ccc2c3c([nH]c2c1)CNCC3 | 190 to 191 |
